Experiments:
Format in all cases: in vivo
[1] = system: Housefly [Musca domestica]; experiment: Housefly insecticidal test; settings: μg per 25 female flies; mortality after 48 hours
Summary of the method: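 Acetone solutions (with 0.01% peanut oil) dried onto dish bottoms, then 25 female flies, 1-2 days old, caged over the residue with sugar water. Mortality scored at 48 hours; LC50 from dosage-mortality curves, in μg per 25 female flies, top level 100 μg.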

[2] = system: Tobacco Budworm [Heliothis virescens (Fabricius)] larvae; experiment: Tobacco budworm contact test; settings: second-instar larvae, percent in solution, 5 days
Description: The compounds in Tables 1 and 2 above were tested for insecticidal activity using the following testing procedures. LC50 values, based on the results of these tests and calculated according to dosage-mortality curves, are expressed in Table 3.
Tobacco Budworm [Heliothis virescens (Fabricius)]:
(a) Contact: Test compounds were diluted in a 50-50 acetone-water solution. Cotton (Gossypium sp.) cotyledons were immersed in the test solutions for 2-3 seconds and placed on a wire screen to dry. The dried leaves were placed in petri dishes containing a moistened piece of filter paper and infested with 5 second-instar tobacco budworm larvae. The dishes were placed in a high humidity chamber for 5 days, and percent mortality of the larvae recorded. Test concentrations ranged from 0.1% downward. The LC-50 values are expressed below in Table 3 under the heading "TBW-C" in terms of percent of the test compound in the solution.

[3] = system: Tobacco Budworm [Heliothis virescens (Fabricius)] eggs; experiment: Tobacco budworm egg test; settings: 2-day old eggs, percent in solution
Summary of the method: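 Paper towel patches bearing 2-day old eggs were dipped in acetone solutions of compound, then set in petri dishes over larval rearing medium at 78° F. Mortality was scored once all control eggs had hatched and larvae were feeding. LC50, from dosage-mortality curves, is given as percent compound in solution.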

[4] = system: Cabbage Looper [Trichoplusia ni (Hubner)]; experiment: Cabbage looper insecticidal test; settings: second-instar larvae, percent in solution; 3-5 days
Summary of the method: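 Compounds in 50-50 acetone-water were applied by dipping squash cotyledons (about 1×1.5 in) for 2-3 s; dried leaves went into petri dishes on moist filter paper with 5 second-instar larvae under high humidity. Mortality was scored after 3-5 days; LC50 from dosage-mortality curves, as percent compound in solution.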

[5] = system: Aster Leafhopper [Macrosteles fascifrens (Stal)]; experiment: Aster leafhopper insecticidal test; settings: adults/nymphs, percent in solution; 48 hours
Summary of the method: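 Three ~10 cm oat seedlings per cup were dipped 2-3 seconds in 50-50 acetone-water compound solutions, dried, and caged with ten adult/nymph leafhoppers. Mortality was counted after 48 hours at concentrations from 0.05% downward. LC50, as percent compound in solution, came from dosage-mortality curves.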

[6] = system: Maize weevil [Sitophilus Zeamais (Motschulsky)]; experiment: Maize weevil insecticidal test; settings: adult weevils, percent in solution; 48 hours
Summary of the method: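 LC50, in percent of compound in solution, was derived from dosage-mortality curves after 48 h at about 25 °C. Ten adult weevils per container fed on four corn seeds briefly immersed in acetone:water (50:50) solutions of up to 0.01% and dried.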

Row | SMILES | LC50, HF [1] [µg] | LC50, TBW, C (TBW-C) [2] [%] | LC50, TBW, E (TBW-E) [3] [%] | LC50, CL [4] [%] | LC50, LH [5] [%] | LC50, MW [6] [%]
1 | ClC(Cl)C(=Nc1ccccc1)OCc1cccc(Oc2ccccc2)c1 [Compound 41] | 4.5 | 0.0035 | 0.04 | 0.015 |  | 
2 | Fc1ccc(N=C(OCc2cccc(Oc3ccccc3)c2)C(Cl)Cl)cc1 [Compound 44] | 3 | < 0.1 | 0.06 |  |  | 
3 | Cc1c(F)cccc1N=C(OCc1cccc(Oc2ccccc2)c1)C(C)C [Compound 73] | 25 | 0.005 | 0.025 | 0.004 |  | 
4 | Cc1ccc(F)cc1N=C(OCc1cccc(Oc2ccccc2)c1)C(C)C [Compound 74] | 25 | 0.0025 | 0.025 | 0.005 |  | 
5 | COc1ccc(N=C(OCc2cccc(Oc3ccccc3)c2)C(C)C)cc1Cl [Compound 95] | 10 | 0.004 | 0.025 | 0.0025 |  | 
6 | Cc1cc(Cl)ccc1N=C(OCc1cccc(Oc2ccccc2)c1)C(C)C [Compound 96] | 35 | 0.0025 | 0.025 | 0.003 |  | 
7 | CC(C)(C)c1ccc(N=C(OCc2cccc(Oc3ccccc3)c2)C(Cl)Cl)cc1 [Compound 140] | > 100 | > 0.1 | > 0.1 | < 0.1 |  | 
8 | COc1ccc(N=C(OCc2cccc(Oc3ccccc3)c2)C(C)C)c(OC)c1 [Compound 146] | 40 | 0.025 | > 0.1 | 0.017 |  | 
9 | CC(=O)c1ccc(N=C(OCc2cccc(Oc3ccccc3)c2)C(C)C)cc1 [Compound 147] | 10 | 0.0075 | > 0.1 | 0.01 |  | 
10 | CC(C)C(=Nc1cccc(C(F)(F)F)c1)OCc1ccc(F)c(Oc2ccc(Cl)cc2)c1 [Compound 266] | 10 | 0.0007 | 0.06 | 0.00016 |  | 
11 | CCC(=Nc1ccc(F)c(F)c1)OCc1coc(Cc2ccccc2)c1 [Compound 524] | 5.2 |  | > 0.1 | > 0.1 | > 0.05 | > 0.01
12 | CC(C)(C)C(=Nc1ccc(F)c(F)c1)OCc1coc(Cc2ccccc2)c1 [Compound 525] | > 100 |  | > 0.1 | < 0.1 | > 0.05 | > 0.01
13 | CC(=Nc1ccc(F)c(F)c1)OCc1coc(Cc2ccccc2)c1 [Compound 526] | 8.3 |  | > 0.1 | > 0.1 | > 0.05 | > 0.01
14 | CC(C)C(=Nc1ccc(F)c(Cl)c1)OCc1cccc(Oc2ccc(Cl)cn2)c1 [Compound 527] | 47 |  | 0.035 | 0.00065 | > 0.05 | > 0.01
15 | CC(C)C(=Nc1ccc2c(c1)OCO2)OCc1cccc(Oc2ccc(Cl)cn2)c1 [Compound 532] | > 100 |  | > 0.1 | < 0.1 | > 0.05 | > 0.01
16 | C#CC(OC(=Nc1ccc(F)c(Cl)c1)C(C)C)c1cccc(Oc2ccccc2)c1 (centres unmarked) [Compound 533, N-(3-chloro-4-fluorophenyl)-O-[1-(3-phenoxyphenyl)-2-propyn-1-yl]isobutyrimidate] | 60 |  | > 0.1 | > 0.1 | > 0.05 | > 0.01
17 | CC(C)C(=Nc1ccc(F)c(Cl)c1)OCC#CCOc1ccccc1 [Compound 534] | > 100 |  | > 0.1 | < 0.1 | > 0.05 | > 0.01
18 | CC(C)C(=Nc1ccc(C(F)(F)F)cc1)OCc1cccc(Cc2ccccc2)c1 [Compound 535] | 41 |  | > 0.1 | > 0.1 | > 0.05 | > 0.01
19 | Cc1c(COC(=Nc2ccc(C(C)(C)C)cc2)C(C)C)cccc1-c1ccccc1 [Compound 536] | > 100 |  | > 0.1 | < 0.1 | > 0.05 | > 0.01
20 | CC(C)C(=Nc1ccc(F)c(Cl)c1)OCc1cccc(Cc2ccccc2)c1 [Compound 537] | 20 |  | > 0.1 | > 0.1 | > 0.05 | > 0.01
21 | CC(C)C(=Nc1ccc(OC(F)(F)F)cc1)OCc1cccc(Cc2ccccc2)c1 [Compound 538] | 75 |  | > 0.1 | > 0.1 | > 0.05 | > 0.01
22 | CC(C)C(=Nc1ccc([N+](=O)[O-])cc1)OCc1coc(Cc2ccccc2)c1 [Compound 539] | 22 |  | > 0.1 | > 0.1 | > 0.05 | > 0.01
23 | CC(C)C(=Nc1ccc2c(c1)OCO2)OCc1ccnc(Oc2ccccc2)c1 [Compound 540] | > 100 |  | > 0.1 | < 0.1 | > 0.05 | > 0.01
24 | COCc1c(F)c(F)c(COC(=Nc2ccc(C(C)(C)C)cc2)C(C)C)c(F)c1F [Compound 544] | > 100 |  | > 0.1 | > 0.1 | > 0.05 | > 0.01
25 | Cc1cccc(N=C(OCc2cccc(Oc3ccc(Cl)cc3)n2)C(C)C)c1 [Compound 545] | < 100 |  | > 0.1 | > 0.1 | > 0.05 | > 0.01
26 | C#CCc1c(F)c(F)c(COC(=Nc2cccc(C(F)(F)F)c2)C(C)C)c(F)c1F [Compound 546] | < 100 |  | > 0.1 | 0.0001 | < 0.05 | 0.0032
27 | C#CCc1c(F)c(F)c(COC(=Nc2ccc3c(c2)OCO3)C(C)C)c(F)c1F [Compound 547] | < 100 |  | 0.05 | 0.0005 | < 0.05 | > 0.01
28 | CC(C)C(=Nc1cccc(C(F)(F)F)c1)OCC#CCOc1ccccc1 [Compound 548] | > 100 |  | > 0.1 | < 0.1 | > 0.05 | > 0.01
29 | CC(C)C(=Nc1ccc(F)c(Cl)c1)OCc1cccc(Oc2ccccn2)c1 [Compound 549] | < 100 |  | > 0.1 | > 0.1 | > 0.05 | > 0.01
